This is an account of results in the NIST ThermoML archive (doi:10.1021/acs.jced.7b00709).

The nature of the series: xn = mol fraction of the nth substance listed. The following applies: 298.2 K, 100 kPa, Liquid, Pycnometric method.

Numbers after ± are expanded uncertainties.

A word on the mass density: it is mass per unit of volume. In the case of `Cc1ccc(-c2ncc(Cl)cc2-c2ccc(S(C)(=O)=O)cc2)cn1` [etoricoxib] + CO, where the note is “x1 = 0.03786”, the mass density is reported as 805 ± 0.9 kg/m3.

Take `Cc1ccc(-c2ncc(Cl)cc2-c2ccc(S(C)(=O)=O)cc2)cn1` [etoricoxib] + O: for the setting “x1 = 1.58e-05”, the mass density amounted to 994.8 ± 1 kg/m3.

Take `Cc1ccc(-c2ncc(Cl)cc2-c2ccc(S(C)(=O)=O)cc2)cn1` [etoricoxib] + CC(O)CO: for the setting “x1 = 0.06047”, the mass density worked out at 1059.7 ± 1.3 kg/m3.

`Cc1ccc(-c2ncc(Cl)cc2-c2ccc(S(C)(=O)=O)cc2)cn1` [etoricoxib] + OCC(O)CO: the mass density (x1 = 0.05656) stood at 1298 ± 1.6 kg/m3.
